Here are results for 38 compounds from patent US10988462B2, “Pyrazole compounds substituted with heteroaryl and pharmaceutical use thereof” (Japan Tobacco Inc., priority 2018, dated 2021).

Chain of human SGLT1 (P13866 whole entry): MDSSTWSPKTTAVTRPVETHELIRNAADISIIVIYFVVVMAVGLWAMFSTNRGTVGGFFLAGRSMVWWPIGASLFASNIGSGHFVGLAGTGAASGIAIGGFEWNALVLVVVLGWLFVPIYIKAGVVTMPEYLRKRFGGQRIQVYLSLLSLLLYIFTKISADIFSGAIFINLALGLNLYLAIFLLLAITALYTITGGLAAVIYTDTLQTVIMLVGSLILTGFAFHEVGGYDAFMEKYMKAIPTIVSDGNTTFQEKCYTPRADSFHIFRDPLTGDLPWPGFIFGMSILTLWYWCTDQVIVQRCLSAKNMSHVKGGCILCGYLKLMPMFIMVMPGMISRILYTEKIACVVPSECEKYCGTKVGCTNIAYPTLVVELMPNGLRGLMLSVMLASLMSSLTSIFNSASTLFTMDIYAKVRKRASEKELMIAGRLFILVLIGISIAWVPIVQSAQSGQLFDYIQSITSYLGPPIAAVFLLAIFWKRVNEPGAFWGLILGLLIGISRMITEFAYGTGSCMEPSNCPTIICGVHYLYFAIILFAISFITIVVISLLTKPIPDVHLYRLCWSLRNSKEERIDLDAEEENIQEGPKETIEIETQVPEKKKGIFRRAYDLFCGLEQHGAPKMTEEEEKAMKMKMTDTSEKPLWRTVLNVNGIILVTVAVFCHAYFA

For one data set, the target named is human SGLT1 (Homo sapiens (Human), UniProt P13866). As to the kind of experiment: SGLT1 inhibitory activity: intracellular uptake of 14C-AMG in human SGLT1-stably-expressing CHO-K1 cell line. The following applies: human SGLT1-stably-expressing CHO-K1 cells, 14C-AMG uptake; read-out: hSGLT1 IC50. Type of data set: cell-based. The protocol:
SGLT1 inhibitory activities of test compounds (IC50 values) were calculated based on the amount of intracellular uptake of labelled α-methyl-D-glucopyranoside (^14C-AMG) transported by SGLT1.
1) Formation of Human SGLT1-Expressing Plasmid
A DNA fragment containing human SGLT1 was amplified by PCR (Polymerase Chain Reaction) using pCMV6-hSGLT1 (OriGene) as a template. In the human SGLT1, NheI recognition and cleavage sequence was added to the upstream of Kozac consensus sequence derived from a vector, and a stop codon, TAG, and SalI recognition and cleavage sequence were added to the immediate downstream of the protein-translating region of human SGLT1. The purified DNA fragment was cleaved by restriction enzymes NheI and SalI, followed by ligation with pcDNA3.1 (+) which was cleaved by NheI and XhoI, thereby forming human SGLT1-expressing plasmid, pcDNA-hSGLT1. The nucleic acid sequence of human SGLT1 inserted into a vector was completely identical to the protein-translated region of human SGLT1 sequence (Accession number NM_000343) registered in GenBank, and the sequence of the portion connected to the vector was as expected.
2) Establishment of Human SGLT1-Stably-Expressing Cell Lines
Human SGLT-expressing plasmid, pcDNA-hSGLT1, was transfected into each CHO-K1 cell by Lipofectamine 2000 (Invitrogen) and cultured in the presence of G418 (Nacalai Tesque) to select drug-resistant cell lines. A cell line having the highest ratio (S/B ratio) of the amount of intracellular uptake of ^14C-AMG per cell to the amount of intracellular uptake of ^14C-AMG after treatment with a SGLT inhibitor, phlorizin, was selected as a human SGLT1-stably-expressing cell line from the drug-resistant cell lines.
3) Assessment of SGLT1 Inhibitory Activity
Human SGLT1-stably-expressing cell lines were seeded at 5×10^4 cells/well on BioCoat™ Poly-D-Lysine 96 well plate with Lid (Becton, Dickinson and Company) and cultured at 37° C. under 5% CO2 overnight. The medium was replaced with 100 μL/well of Na(−) buffer (140 mM choline chloride, 2 mM KCl, 1 mM MgCl2, 1 mM CaCl2, 10 mM HEPES, 5 mM Tris, pH 7.4), and then the mixture was let stand at 37° C. under 5% CO2 for 20 minutes. After removal of Na(−) buffer, thereto was added 40 μL/well of a test compound solution prepared with Na(+) buffer (140 mM NaCl, 2 mM KCl, 1 mM MgCl2, 1 mM CaCl2, 10 mM HEPES, 5 mM Tris, pH 7.4) comprising BSA. Then, thereto was added 40 μL/well of Na(+) buffer comprising 8 kBq of ^14C-AMG and 2 mM AMG, and the mixture was mixed well. For a blank, 40 μL/well of Na(−) buffer comprising BSA was added, and in addition, 40 μL/well of Na(−) buffer comprising 8 kBq of ^14C-AMG and 2 mM AMG was added, and the mixture was mixed well. After incubation by being let stand for 1 hour at 37° C. under 5% CO2, cells were washed twice with 100 μL/well of ice-cooled wash buffer (100 mM AMG, 140 mM choline chloride, 2 mM KCl, 1 mM MgCl2, 1 mM CaCl2, 10 mM HEPES, 5 mM Tris, pH 7.4) to terminate the reaction. A cell lysate was prepared by addition of 50 μL/well of 0.2N aqueous NaOH solution. In the assessment for the uptake ability of ^14C-AMG, the total amount of the cell lysate was transferred to OptiPlate 96 (Perkin-Elmer) with 100 μL/well of MicroScint-40 (Perkin-Elmer) dispensed and ^14C of CPM was measured with TOPCOUNT NXT (Perkin-Elmer).
Data was calculated by deducting the average value of CPM for blank well from the average value of CPM for each well treated. An inhibition rate for each test compound in each concentration was calculated from the following equation: [(A−B)/A]×100 wherein A is data for a solvent control and B is data for treatment with each test compound.
One may read the IC50 as the concentration that inhibits the measured activity by half. For the compound `C[C@H]1C(=O)NC[C@@H]1C(=O)Nc1cc(-c2cc(F)cc(OC(C)(C)C(F)(F)F)c2)n(-c2cccnc2C#N)n1` [Example 11], the IC50 was 8.4 nM. On the same count and under the same terms, then `C[C@H]1C(=O)NC[C@@H]1C(=O)Nc1cc(-c2cc(F)cc(OC(C)(C)C(F)(F)F)c2)n(-c2cnc(C(F)(F)F)cn2)n1` [Example 15], with 6.1 nM; and `C[C@H]1C(=O)NC[C@@H]1C(=O)Nc1cc(-c2cc(F)cc(OC(C)(C)C(F)(F)F)c2)n(-c2ccc(C(F)(F)F)nc2)n1` [Example 20], with 1.2 nM. The same measure, in the same setting: the figure for `C[C@H]1C(=O)NC[C@@H]1C(=O)Nc1cc(-c2cccc(OC(F)(F)F)c2)n(-c2cnc(C(F)(F)F)nc2)n1` [Example 26] is 47 nM; for `C[C@H]1C(=O)NC[C@@H]1C(=O)Nc1cc(-c2cc(F)cc(OC(C)(C)C(F)(F)F)c2)n(-c2nccnc2C(F)(F)F)n1` [Example 19] it is 29 nM. For the compound `C[C@H]1C(=O)NC[C@@H]1C(=O)Nc1cc(-c2cc(F)cc(OC(C)(C)C(F)(F)F)c2)n(-c2cncc(Cl)c2)n1` [Example 17], the IC50 is 1.3 nM.

For `C[C@H]1C(=O)NC[C@@H]1C(=O)Nc1cc(-c2cc(F)cc(OC(F)(F)F)c2)n(-c2cncc(Cl)c2)n1` [Example 30], the IC50 worked out at 2.7 nM. The same measure, in the same setting: the figure for `C[C@H]1C(=O)NC[C@@H]1C(=O)Nc1cc(-c2cc(F)cc(OC(F)(F)F)c2)n(-c2ccc(C(F)(F)F)nc2)n1` [Example 28] is 7.2 nM; for `Cc1ncc(-n2nc(NC(=O)[C@H]3CNC(=O)[C@@H]3C)cc2-c2cc(F)cc(OC(C)(C)C(F)(F)F)c2)cn1` [Example 38] it is 4 nM; for `C[C@H]1C(=O)NC[C@@H]1C(=O)Nc1cc(-c2cc(F)cc(OC(C)(C)C(F)(F)F)c2)n(-c2cnc(N(C)C)nc2)n1` [Example 37] it is 0.98 nM. The same measure, in the same setting: the figure for `C[C@H]1C(=O)NC[C@@H]1C(=O)Nc1cc(-c2cc(F)cc(OCC(F)(F)F)c2)n(-c2cncnc2)n1` [Example 32] is 69 nM; for `C[C@H]1C(=O)NC[C@@H]1C(=O)Nc1cc(-c2cc(F)cc(OC(C)(C)C)c2)n(-c2cnccn2)n1` [Example 4] it is 23 nM.

Regarding `C[C@H]1C(=O)NC[C@@H]1C(=O)Nc1cc(-c2cc(F)cc(OC(C)(C)C(F)(F)F)c2)n(-c2nccc(C(F)(F)F)n2)n1` [Example 16], the half-inhibitory concentration (IC50) is 83 nM. As for `C[C@H]1C(=O)NC[C@@H]1C(=O)Nc1cc(-c2cc(F)cc(OC(F)(F)F)c2)n(-c2cnc(C(F)(F)F)nc2)n1` [Example 27], the concentration for half-maximal inhibition (IC50) was 30 nM. Still for that read-out and setting: the figure for `C[C@H]1C(=O)NC[C@@H]1C(=O)Nc1cc(-c2cc(F)cc(OC(F)(F)F)c2)n(-c2cncnc2)n1` [Example 29] is 52 nM. Take `C[C@H]1C(=O)NC[C@@H]1C(=O)Nc1cc(-c2cccc(OC(F)(F)F)c2)n(-c2cncc(C(F)(F)F)c2)n1` [Example 7]: the IC50 turned out to be 17 nM. Still for that read-out and setting: the figure for `C[C@H]1C(=O)NC[C@@H]1C(=O)Nc1cc(-c2cc(F)cc(OCC(F)(F)F)c2)n(-c2cncc(Cl)c2)n1` [Example 35] is 4.6 nM; for `C[C@H]1C(=O)NC[C@@H]1C(=O)Nc1cc(-c2cc(F)cc(OC(C)(C)C(F)(F)F)c2)n(-c2cncnc2)n1` [Example 22] it is 3.4 nM; for `C[C@H]1C(=O)NC[C@@H]1C(=O)Nc1cc(-c2cc(F)cc(OCC(F)(F)F)c2)n(-c2cnc(C(F)(F)F)nc2)n1` [Example 25] it is 5.7 nM. As to `C[C@H]1C(=O)NC[C@@H]1C(=O)Nc1cc(-c2cc(F)cc(OC(F)(F)F)c2)n(-c2cncc(C(F)(F)F)c2)n1` [Example 3], the IC50 came out at 8.6 nM.

As to `C[C@H]1C(=O)NC[C@@H]1C(=O)Nc1cc(-c2cc(F)cc(OC(C)(C)C(F)(F)F)c2)n(-c2ccnc(C(F)(F)F)n2)n1` [Example 9], the IC50 came to 73 nM.

As for `C[C@H]1C(=O)NC[C@@H]1C(=O)Nc1cc(-c2cc(F)cc(OC(F)(F)F)c2)n(-c2cncc(F)c2)n1` [Example 2, (3R,4R)—N-(5-(3-fluoro-5-(trifluoromethoxy)phenyl)-1-(5-fluoropyridin-3-yl)-1H-pyrazol-3-yl)-4-methyl-5-oxopyrrolidine-3-carboxamide], the IC50 amounted to 14 nM.

For the compound `C[C@H]1C(=O)NC[C@@H]1C(=O)Nc1cc(-c2cc(F)cc(OC(C)(C)C(F)(F)F)c2)n(-c2cnccn2)n1` [Example 23], the IC50 was found to be 11 nM. Turning to `C[C@H]1C(=O)NC[C@@H]1C(=O)Nc1cc(-c2cc(F)cc(OC(C)(C)C(F)(F)F)c2)n(-c2cccnc2C(F)(F)F)n1` [Example 12], the concentration for half-maximal inhibition (IC50) amounted to 4.3 nM. As to `C[C@H]1C(=O)NC[C@@H]1C(=O)Nc1cc(-c2cc(F)cc(OC(C)(C)C(F)(F)F)c2)n(-c2cnccc2C#N)n1` [Example 14], the IC50 came to 3.7 nM. On the same count and under the same terms, then `C[C@H]1C(=O)NC[C@@H]1C(=O)Nc1cc(-c2cc(F)cc(OCC(F)(F)F)c2)n(-c2cncc(F)c2)n1` [Example 34], with 9.8 nM; and `C[C@H]1C(=O)NC[C@@H]1C(=O)Nc1cc(-c2cccc(OC(F)(F)F)c2)n(-c2cncc(Cl)c2)n1` [Example 6], with 9 nM. On the same count and under the same terms, then `C[C@H]1C(=O)NC[C@@H]1C(=O)Nc1cc(-c2cc(F)cc(OCC(F)(F)F)c2)n(-c2ccc(C(F)(F)F)nc2)n1` [Example 33], with 5.9 nM.

Consider `C[C@H]1C(=O)NC[C@@H]1C(=O)Nc1cc(-c2cc(F)cc(OC(C)(C)C(F)(F)F)c2)n(-c2cnc(C(F)(F)F)nc2)n1` [Example 1, (3R,4R)—N-(5-(3-fluoro-5-((1,1,1-trifluoro-2-methylpropan-2-yl)oxy)phenyl)-1-(2-(trifluoromethyl)pyrimidin-5-yl)-1H-pyrazol-3-yl)-4-methyl-5-oxopyrrolidine-3-carboxamide], for which the IC50 came out at 1.9 nM. Still for that read-out and setting: the figure for `C[C@H]1C(=O)NC[C@@H]1C(=O)Nc1cc(-c2cc(F)cc(OC(C)(C)C(F)(F)F)c2)n(-c2ccc(C(F)(F)F)cn2)n1` [Example 24] is 5.3 nM; for `C[C@H]1C(=O)NC[C@@H]1C(=O)Nc1cc(-c2cccc(OC(F)(F)F)c2)n(-c2cncc(F)c2)n1` [Example 5] it is 22 nM. Still for that read-out and setting: then `C[C@H]1C(=O)NC[C@@H]1C(=O)Nc1cc(-c2cc(F)cc(OC(C)(C)C(F)(F)F)c2)n(-c2cncc(F)c2)n1` [Example 21], with 1.2 nM; and `C[C@H]1C(=O)NC[C@@H]1C(=O)Nc1cc(-c2cc(F)cc(OC(C)(C)C(F)(F)F)c2)n(-c2cnccc2C(F)(F)F)n1` [Example 13], with 2.9 nM. Same read-out and setting: then `C[C@H]1C(=O)NC[C@@H]1C(=O)Nc1cc(-c2cc(F)cc(OCC(F)(F)F)c2)n(-c2cncc(C(F)(F)F)c2)n1` [Example 31], with 5.7 nM; and `COc1ncc(-n2nc(NC(=O)[C@H]3CNC(=O)[C@@H]3C)cc2-c2cc(F)cc(OC(C)(C)C(F)(F)F)c2)cn1` [Example 36], with 1.9 nM. With `C[C@H]1C(=O)NC[C@@H]1C(=O)Nc1cc(-c2cc(F)cc(OC(C)(C)C(F)(F)F)c2)n(-c2cncc(C(F)(F)F)n2)n1` [Example 18], the IC50 was 29 nM.

For `C[C@H]1C(=O)NC[C@@H]1C(=O)Nc1cc(-c2cc(F)cc(OC(C)(C)C(F)(F)F)c2)n(-c2cncc(C(F)(F)F)c2)n1` [Example 10], the IC50 came out at 1.2 nM.

The next data set relates to Escherichia coli WP2uvrA. The experiment in a line: Ames test (reverse mutation test), pre-incubation method, strain WP2uvrA. It counts as cell-based. The following applies: positive control; S9 mix −; dose 0.01 μg/plate. An excerpt:
Ames Test (Reverse Mutation Test)
Two plates per treatment were used.
(The Ames test detects mutagens through reverse mutation in bacteria.)
In the case of `NC(=O)C(=Cc1ccc([N+](=O)[O-])o1)c1ccco1` [AF-2, 2-(2-Furyl)-3-(5-nitro-2-furyl)acrylamide, reference compound], the “Number of revertant colonies WP2uvrA” value came to 154.
